Assay results reported in patent US10758534B2 (Vertex Pharmaceuticals Incorporated, priority 2014, dated 2020).

Target: T1, F508del (Homo sapiens, UniProt P13569, DEL508-508)
T1 construct: expressed in transfected cells
Experiment: Protocol 1: membrane potential optical assay (FLIPR III, voltage sensing dye), identification of potentiator compounds
Type: cell-based
Settings: Table 3, compounds of Table 1
In short: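 Membrane potential in forskolin-activated, temperature-rescued F508del NIH 3T3 cells is followed with a voltage-sensing dye on FLIPR III. A chloride ion gradient created at the single addition step provides the driving force, after prior compound treatment.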

T1 sequence (P13569 with tags, fused parts or gaps DEL508-508): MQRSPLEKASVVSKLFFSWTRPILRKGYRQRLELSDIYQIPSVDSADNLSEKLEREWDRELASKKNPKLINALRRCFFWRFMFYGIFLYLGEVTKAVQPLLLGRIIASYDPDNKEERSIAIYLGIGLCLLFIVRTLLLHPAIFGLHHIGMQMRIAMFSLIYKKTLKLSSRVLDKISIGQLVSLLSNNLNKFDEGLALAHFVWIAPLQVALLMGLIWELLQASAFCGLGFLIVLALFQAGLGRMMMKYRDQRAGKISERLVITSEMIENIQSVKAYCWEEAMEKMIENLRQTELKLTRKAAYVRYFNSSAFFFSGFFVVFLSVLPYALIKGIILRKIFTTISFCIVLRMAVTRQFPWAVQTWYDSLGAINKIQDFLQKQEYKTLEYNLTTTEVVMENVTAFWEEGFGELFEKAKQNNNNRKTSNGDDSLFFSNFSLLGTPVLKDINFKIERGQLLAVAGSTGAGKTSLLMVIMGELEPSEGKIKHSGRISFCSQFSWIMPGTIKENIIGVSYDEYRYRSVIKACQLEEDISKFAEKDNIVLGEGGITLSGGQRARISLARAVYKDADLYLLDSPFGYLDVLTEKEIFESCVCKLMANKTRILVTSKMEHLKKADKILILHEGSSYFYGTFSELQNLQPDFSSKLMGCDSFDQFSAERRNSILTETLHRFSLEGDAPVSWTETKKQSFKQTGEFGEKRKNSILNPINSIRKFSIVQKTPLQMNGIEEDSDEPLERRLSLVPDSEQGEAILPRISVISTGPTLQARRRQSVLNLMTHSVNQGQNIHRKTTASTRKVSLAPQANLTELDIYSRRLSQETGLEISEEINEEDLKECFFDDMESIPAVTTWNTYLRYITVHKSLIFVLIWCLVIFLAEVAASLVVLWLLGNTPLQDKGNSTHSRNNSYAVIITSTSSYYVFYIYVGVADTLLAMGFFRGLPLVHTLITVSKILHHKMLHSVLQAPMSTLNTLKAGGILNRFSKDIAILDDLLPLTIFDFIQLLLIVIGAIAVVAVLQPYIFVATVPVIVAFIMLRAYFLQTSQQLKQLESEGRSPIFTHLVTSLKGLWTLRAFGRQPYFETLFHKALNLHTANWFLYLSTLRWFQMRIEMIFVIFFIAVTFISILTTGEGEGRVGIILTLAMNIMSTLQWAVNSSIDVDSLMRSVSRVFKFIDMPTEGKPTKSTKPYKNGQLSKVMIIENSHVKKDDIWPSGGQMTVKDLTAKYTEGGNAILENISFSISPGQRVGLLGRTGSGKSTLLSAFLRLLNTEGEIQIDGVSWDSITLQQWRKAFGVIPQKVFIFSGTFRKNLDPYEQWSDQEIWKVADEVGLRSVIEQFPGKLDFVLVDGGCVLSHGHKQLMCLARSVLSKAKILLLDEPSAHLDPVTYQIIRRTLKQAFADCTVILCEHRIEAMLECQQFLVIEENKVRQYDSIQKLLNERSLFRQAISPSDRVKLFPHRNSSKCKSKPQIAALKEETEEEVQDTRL

Row | EC30 | SMILES
1 | +++ (“+++” means <3 uM) | Cc1cc(C)c(Oc2nc(-c3ccc(OC(C)C)nc3)ccc2C(=O)NS(=O)(=O)c2cccc(N)n2)c(C)c1 [Compound 1163, N-[(6-amino-2-pyridyl)sulfonyl]-6-(6-isopropoxy-3-pyridyl)-2-(2,4,6-trimethylphenoxy)pyridine-3-carboxamide]
2 | ++ (“++” means between 3 uM and 10 uM) | COC1CCN(c2nc(C(C)(C)C)ccc2C(=O)NS(=O)(=O)c2cccc(N)n2)CC1 [Compound 1164, N-[(6-amino-2-pyridyl)sulfonyl]-6-tert-butyl-2-(4-methoxy-1-piperidyl)pyridine-3-carboxamide]
3 | +++ (“+++” means <3 uM) | Cc1cc(C)c(Cn2nc(C(C)(C)C)cc2C(=O)NS(=O)(=O)c2ccccc2N)c(C)c1 [Compound 1167, N-(2-aminophenyl)sulfonyl-5-tert-butyl-2-[(2,4,6-trimethylphenyl)methyl]pyrazole-3-carboxamide]
4 | ++ (“++” means between 3 uM and 10 uM) | CC#Cc1ccc(C(=O)NS(=O)(=O)c2cccc(N)n2)c(Oc2c(C)cc(C)cc2C)n1 [Compound 1172, N-[(6-amino-2-pyridyl)sulfonyl]-6-prop-1-ynyl-2-(2,4,6-trimethylphenoxy)pyridine-3-carboxamide]
5 | +++ (“+++” means <3 uM) | COc1ccccc1-c1ccc(C(=O)NS(=O)(=O)c2cccc(N)n2)c(Oc2c(C)cc(C)cc2C)n1 [Compound 1173, N-[(6-amino-2-pyridyl)sulfonyl]-6-(2-methoxyphenyl)-2-(2,4,6-trimethylphenoxy)pyridine-3-carboxamide]
6 | +++ (“+++” means <3 uM) | Cc1ccc(-c2nc(C(C)(C)C)ccc2C(=O)NS(=O)(=O)c2ccccc2O)cc1 [Compound 1175, 6-tert-butyl-N-(2-hydroxyphenyl)sulfonyl-2-(p-tolyl)pyridine-3-carboxamide]
7 | ++ (“++” means between 3 uM and 10 uM) | Cc1cc(C)c(Oc2nc(-c3cnn(CC(C)C)c3)ccc2C(=O)NS(=O)(=O)c2cccc(N)n2)c(C)c1 [Compound 1177, N-[(6-amino-2-pyridyl)sulfonyl]-6-(1-isobutylpyrazol-4-yl)-2-(2,4,6-trimethylphenoxy)pyridine-3-carboxamide]
8 | +++ (“+++” means <3 uM) | COc1ccc(F)c(-c2ccc(C(=O)NS(=O)(=O)c3cccc(N)n3)c(Oc3c(C)cc(C)cc3C)n2)c1 [Compound 1178, N-[(6-amino-2-pyridyl)sulfonyl]-6-(2-fluoro-5-methoxy-phenyl)-2-(2,4,6-trimethylphenoxy)pyridine-3-carboxamide]
9 | ++ (“++” means between 3 uM and 10 uM) | CCOc1ccc(-c2ccc(C(=O)NS(=O)(=O)c3ccc[nH]c3=O)c(Oc3c(C)cc(C)cc3C)n2)cc1 [Compound 1179, 6-(4-ethoxyphenyl)-N-[(2-oxo-1H-pyridin-3-yl)sulfonyl]-2-(2,4,6-trimethylphenoxy)pyridine-3-carboxamide]
10 | +++ (“+++” means <3 uM) | CC1CN(c2nc(-c3ccc(OCC(C)(C)C)nc3)ccc2C(=O)NS(=O)(=O)c2cccc(N)n2)C(C)(C)C1 (centres unmarked) [Compound 1181, N-[(6-amino-2-pyridyl)sulfonyl]-6-[6-(2,2-dimethylpropoxy)-3-pyridyl]-2-(2,2,4-trimethylpyrrolidin-1-yl)pyridine-3-carboxamide]
11 | ++ (“++” means between 3 uM and 10 uM) | CC(C)Oc1ccc(-c2ccc(C(=O)NS(=O)(=O)c3cccc(N)n3)c(N3CCCCC3C)n2)cn1 (centres unmarked) [Compound 1182, N-[(6-amino-2-pyridyl)sulfonyl]-6-(6-isopropoxy-3-pyridyl)-2-(2-methyl-1-piperidyl)pyridine-3-carboxamide]
12 | + (“+” means greater than 10 uM) | Cc1cc(C)c(Oc2nc(-c3ccc(CO)cc3)ccc2C(=O)NS(=O)(=O)c2cccc(N)n2)c(C)c1 [Compound 1183, N-[(6-amino-2-pyridyl)sulfonyl]-6-[4-(hydroxymethyl)phenyl]-2-(2,4,6-trimethylphenoxy)pyridine-3-carboxamide]
13 | +++ (“+++” means <3 uM) | CCOc1ccc(-c2ccc(C(=O)NS(=O)(=O)c3cccc(N)n3)c(Oc3c(C)cc(C)cc3C)n2)cn1 [Compound 1185, N-[(6-amino-2-pyridyl)sulfonyl]-6-(6-ethoxy-3-pyridyl)-2-(2,4,6-trimethylphenoxy)pyridine-3-carboxamide]
14 | +++ (“+++” means <3 uM) | Cc1cc(C)c(C(C)N2Cc3ccccc3C2C(=O)NS(=O)(=O)c2cccc(N)n2)c(C)c1 (centres unmarked) [Compound 1186, N-[(6-amino-2-pyridyl)sulfonyl]-2-[1-(2,4,6-trimethylphenyl)ethyl]isoindoline-1-carboxamide]
15 | +++ (“+++” means <3 uM) | Cc1cc(C)c(Oc2nc(-c3cccc(OC(C)C)c3)ccc2C(=O)NS(=O)(=O)c2ccc[nH]c2=O)c(C)c1 [Compound 1188, 6-(3-isopropoxyphenyl)-N-[(2-oxo-1H-pyridin-3-yl)sulfonyl]-2-(2,4,6-trimethylphenoxy)pyridine-3-carboxamide]
16 | +++ (“+++” means <3 uM) | CC1(C)CCCc2cc(C(=O)NS(=O)(=O)c3ccc(N)cc3)c(-c3ccccc3)nc21 [Compound 1190, N-(4-aminophenyl)sulfonyl-8,8-dimethyl-2-phenyl-6,7-dihydro-5H-quinoline-3-carboxamide]
17 | ++ (“++” means between 3 uM and 10 uM) | COc1ncc(-c2ccc(C(=O)NS(=O)(=O)c3nccnc3N)c(N3CCC(C)CC3)n2)cc1C [Compound 1191, N-(3-aminopyrazin-2-yl)sulfonyl-6-(6-methoxy-5-methyl-3-pyridyl)-2-(4-methyl-1-piperidyl)pyridine-3-carboxamide]

Row | SMILES | EC30
18 | CC(C)COc1cc(F)cc(-c2ccc(C(=O)NS(=O)(=O)c3cccc(N)n3)c(OC(C)C3CC3)n2)c1 (centres unmarked) [Compound 1165, N-[(6-amino-2-pyridyl)sulfonyl]-2-(1-cyclopropylethoxy)-6-(3-fluoro-5-isobutoxy-phenyl)pyridine-3-carboxamide] | ++ (“++” means between 3 uM and 10 uM)
19 | CC(C)COc1cc(F)cc(-c2ccc(C(=O)NS(=O)(=O)c3cccc(N)n3)c(N3[C@H](C)CCC3(C)C)n2)c1 [Compound 1166, N-[(6-amino-2-pyridyl)sulfonyl]-6-(3-fluoro-5-isobutoxy-phenyl)-2-[(5R)-2,2,5-trimethylpyrrolidin-1-yl]pyridine-3-carboxamide] | +++ (“+++” means <3 uM)
20 | CC(C)COc1cc(F)cc(-c2ccc(C(=O)NS(=O)(=O)c3nc(N)cs3)c(N3CCC(C)(C)CC3)n2)c1 [Compound 1168, N-(4-aminothiazol-2-yl)sulfonyl-2-(4,4-dimethyl-1-piperidyl)-6-(3-fluoro-5-isobutoxy-phenyl)pyridine-3-carboxamide] | +++ (“+++” means <3 uM)
21 | CC(C)COc1cc(F)cc(-c2ccc(C(=O)NS(=O)(=O)c3ccn[nH]3)c(N3CCCC(C)C3C)n2)c1 (centres unmarked) [Compound 1169, 2-(2,3-dimethyl-1-piperidyl)-6-(3-fluoro-5-isobutoxy-phenyl)-N-(1H-pyrazol-5-ylsulfonyl)pyridine-3-carboxamide] | ++ (“++” means between 3 uM and 10 uM)
22 | CC(C)COc1cc(F)cc(-c2ccc(C(=O)NS(=O)(=O)c3cccc(N)n3)c(N3CCC[C@@H]3C(C)(C)C)n2)c1 [Compound 1170, N-[(6-amino-2-pyridyl)sulfonyl]-2-[(2R)-2-tert-butylpyrrolidin-1-yl]-6-(3-fluoro-5-isobutoxy-phenyl)pyridine-3-carboxamide] | +++ (“+++” means <3 uM)
23 | COc1cccc(S(=O)(=O)NC(=O)c2ccc(-c3cc(F)cc(OCC(C)C)c3)nc2N2CC(C)CC2(C)C)c1 (centres unmarked) [Compound 1171, 6-(3-fluoro-5-isobutoxy-phenyl)-N-(3-methoxyphenyl)sulfonyl-2-(2,2,4-trimethylpyrrolidin-1-yl)pyridine-3-carboxamide] | +++ (“+++” means <3 uM)
24 | CC(C)COc1cc(F)cc(-c2ccc(C(=O)NS(=O)(=O)c3ccn[nH]3)c(N3CCC(C)C(C)(C)C3)n2)c1 (centres unmarked) [Compound 1174, 6-(3-fluoro-5-isobutoxy-phenyl)-N-(1H-pyrazol-5-ylsulfonyl)-2-(3,3,4-trimethyl-1-piperidyl)pyridine-3-carboxamide] | +++ (“+++” means <3 uM)
25 | CC(C)COc1cc(F)cc(-c2ccc(C(=O)NS(=O)(=O)c3ccn[nH]3)c(N3C[C@H](C)CC3(C)C)n2)c1 [Compound 1176, 6-(3-fluoro-5-isobutoxy-phenyl)-N-(1H-pyrazol-5-ylsulfonyl)-2-[(4R)-2,2,4-trimethylpyrrolidin-1-yl]pyridine-3-carboxamide] | +++ (“+++” means <3 uM)
26 | CC(C)COc1cc(F)cc(-c2ccc(C(=O)NS(=O)(=O)c3cccc(N)n3)c(N3C[C@@H]4CC[C@H]3C4)n2)c1 [Compound 1180, N-[(6-amino-2-pyridyl)sulfonyl]-2-[(1R,4S)-3-azabicyclo[2.2.1]heptan-3-yl]-6-(3-fluoro-5-isobutoxy-phenyl)pyridine-3-carboxamide] | +++ (“+++” means <3 uM)
27 | CC(C)COc1cc(F)cc(-c2ccc(C(=O)NS(=O)(=O)c3cccc(N)c3)c(N3CC(C)CC3(C)C)n2)c1 (centres unmarked) [Compound 1184, N-(3-aminophenyl)sulfonyl-6-(3-fluoro-5-isobutoxy-phenyl)-2-(2,2,4-trimethylpyrrolidin-1-yl)pyridine-3-carboxamide] | +++ (“+++” means <3 uM)
28 | CCCCOc1ccc(-c2ccc(C(=O)NS(=O)(=O)c3ccc[nH]c3=O)c(Oc3c(C)cc(C)cc3C)n2)cc1F [Compound 1187, 6-(4-butoxy-3-fluoro-phenyl)-N-[(2-oxo-1H-pyridin-3-yl)sulfonyl]-2-(2,4,6-trimethylphenoxy)pyridine-3-carboxamide] | +++ (“+++” means <3 uM)
29 | CC(C)COc1cc(F)cc(-c2ccc(C(=O)NS(=O)(=O)c3cccc(N)n3)c(N3CCC(=O)C3(C)C)n2)c1 [Compound 1189, N-[(6-amino-2-pyridyl)sulfonyl]-2-(2,2-dimethyl-3-oxo-pyrrolidin-1-yl)-6-(3-fluoro-5-isobutoxy-phenyl)pyridine-3-carboxamide] | +++ (“+++” means <3 uM)
